Test results from patent US9556231B2, “Beta-hairpin peptidomimetics as CXC4 antagonists” (POLYPHOR AG, priority 2011, dated 2017).
Bridge positions count the residues as written; N and C are the ends. Square brackets hold non-standard residues; d marks the D form. Peptide text beside a SMILES is read from it. Lys(iPr) = CC(C)NCCCC[C@H](N)C(=O)O; Orn(iPr) = CC(C)NCCC[C@H](N)C(=O)O; Dab = NCC[C@H](N)C(=O)O

What was measured:
[1] = Pharmacokinetic study (PK), i.v., CD-1 mice; format: in vivo; settings: mouse, i.v. 1 mg/kg; for level at 0.083 h / level at 0.25 h / level at 0.5 h / level at 1 h / level at 2 h / level at 3 h / AUC(0-inf) / Cmax / clearance / half-life / Vd / level at 4 h: male, CD-1, in vivo, iv; for level at 0.083 h / level at 0.25 h / level at 0.5 h / level at 1 h / level at 2 h / level at 3 h / level at 4 h: read-out: Calc. Conc. (plasma); for AUC(0-inf) / Cmax / clearance / half-life / Vd: one-compartmental model; for Vd: read-out: Vdis
Protocol: For the compounds of Ex. 1, Ex. 2, Ex. 3, Ex. 4, Ex. 5 and Ex. 6 pharmacokinetic studies after intravenous (i.v.) administration were performed.
30 grams (±20%) male CD-1 mice obtained from Charles River Laboratories Deutschland GmbH were used. The vehicle, phosphate buffered saline, was added to give a final concentration of 0.5 mg/mL of the compound. The volume was 2 mL/kg and the compound was injected to give a final intravenous dose of 1 mg/kg. Approximately 300-400 μL of blood was removed under light isoflurane anesthesia by cardiac puncture at predetermined time intervals (5, 15, 30 min and 1, 2, 3, 4, hours) and added to heparinized tubes. Plasma was removed from pelleted cells upon centrifugation and frozen at −80° C. prior to HPLC-MS analysis.
Aliquots of 50 μL each of mouse plasma of untreated aminals (“blank” mouse plasma) were spiked with known amounts of the compounds Ex. 1, Ex. 2, Ex. 3, Ex. 4, Ex. 5 and Ex. 6 in order to obtain 10 plasma calibration samples for each compound in the range 1-4000 ng/mL. Aliquots of 50 μL each of mouse plasma from treated animals were used as plasma study samples.
All plasma samples were spiked with an appropriate internal standard and extracted with acetonitrile containing 2% formic acid. Supernatants were evaporated to dryness under nitrogen and the remaining solids reconstituted in water/acetonitrile 95/5 (v/v)+0.2% formic acid.
Extracts were then analyzed by reverse-phase chromatography (Acquity BEH C18, 100×2.1 mm, 1.7 μm column, Waters for Ex. 1 and Acquity HSS C18 SB, 100×2.1 mm, 1.8 μm column, Waters for Ex. 2, Ex. 3, Ex. 4, Ex. 5 and Ex. 6), using the following conditions: Ex. 1, mobile phases: (A) water/acetonitrile 95/5 (v/v)+0.1% formic acid, (B) acetonitrile/water 95/5 (v/v)+0.1% formic acid, gradient: 1% (B) 0-0.1 min, 15% (B) 0.1-2.5 min for Ex. 1 and 1% (B) 0-0.1 min, 40% (B) 0.1-2.5 min for Ex. 2, Ex. 3, Ex. 4, Ex. 5 and Ex. 6. The detection and quantification was performed by mass spectrometry, with electrospray interface in positive mode and selective fragmentation of analytes (4000 Q Trap mass spectrometer, AB Sciex).
PK parameters were calculated by WinNonLin™ software version 5.3 (Pharsight-A Certara™ Company, Mountain View, Calif. 94041 USA) using a one-compartmental model analysis. PK parameters were determined by least-square fitting of the model to the experimental data.

[2] = Cytotoxicity, MTT reduction assay, COS-7 cells; format: cell-based; settings: African green monkey; MTT, 48 h, up to 50 μM; read-out: Cytotoxicity Cos-7 Cells GI50
Protocol: Namalwa cells (CXCR4 natively expressing non-adherent cells, ATCC CRL-1432) were cultured in RPMI1640 plus 10% FBS, and pen/strept. HELA cells were maintained in RPMI1640 plus 10% FBS, pen/strept and 2 mM L-glutamine. Cos-7 cells were grown in DMEM medium with […] glucose supplemented with 10% FCS, pen/strept and 2 mM L-glutamine. All cell lines were grown at 37° C. at 5% CO2. Cell media, media supplements, PBS-buffer, HEPES, antibiotic/antimycotic, pen/strept, non essential amino acid, L-glutamine, β-mercaptoethanol and sera were purchased from Gibco (Pailsey, UK). All fine chemicals were supplied by Merck (Darmstadt, Germany).
The cytotoxicity of the peptides to HELA cells (Acc57) and COS-7 cells (CRL-1651) was determined using the MTT reduction assay (T. Mossman, J. Immunol. Meth. 1983, 65, 55-63; M. V. Berridge, A. S. Tan, Arch. Biochem. Biophys. 1993, 303, 474-482). Briefly, the method was as follows: 4000 HELA cells/well and 3400 COS-7 cells/well were seeded and grown in 96-well microtiter plates for 24 h at 37° C. at 5% CO2. Thereafter, time zero (Tz) was determined by MTT reduction (see below). The supernatant of the remaining wells was discarded, and fresh medium and compounds in serial dilutions (12.5, 25 and 50 μM, triplicates; 0 μM, blank) were pipetted into the wells. After incubation of the cells for 48 h at 37° C. at 5% CO2 the supernatant was discarded again and 100 μL MTT reagent (0.5 mg/mL in RPMI1640 and DMEM, respectively)/well was added. Following incubation at 37° C. for 2-4 h the media were aspirated and the cells were spiked (100 μL isopropanol/well). The absorbance of the solubilized formazan was measured at 595 nm (OD595peptide). For each concentration averages were calculated from triplicates. The percentage of growth was calculated as follows: (OD595peptide−OD595Tz)/(OD595blank−OD595Tz)×100%. The GI50 (Growth Inhibition) concentrations were calculated for each peptide by using a trend line function for the concentrations (50, 25, 12.5 and 0 μM), the corresponding percentages and the value 50, (=TREND (C50:C0,%50:%0,50).

[3] = Plasma stability, mouse plasma; format: in vitro ADME; settings: 37° C.; for remaining at 24 h, 10 μM: 1440 min, read-out: mouse pl. cpd left at 1440 min; for mouse pl. T1/2: up to 1440 min
Protocol: (§1) The stability of the peptides in human and mouse plasma was determined by applying the following method: 346.5 μL/deep well of freshly thawed human plasma (Basler Blutspende-dienst) and mouse plasma (Harlan Sera-Lab, UK), respectively, were spiked with 3.5 μL/well of compound dissolved in DMSO/H2O (90/10 [v/v], 1 mM, triplicate) and incubated at 37° C. At t=0, 15, 30, 60, 120, 240 and 1440 min aliquots of 50 μL were transferred to filtration plate wells containing 150 μL/well of 2% formic acid in acetonitrile. Following shaking for 2 min the occurred suspensions were filtrated by vacuum. 100 μL of each filtrate were transferred to a propylene microtiter plate and dried under N2. The residual solids were reconstituted by adding 100 μL/well of water/acetonitrile, 95/5 (v/v)+0.2% formic acid and analyzed by LC/MS as follows: Column: Waters, XBridge C18, mobile phases: (A) water+0.1% formic acid and (B) acetonitrile/water, 95/5 (v/v)+0.1% formic acid, gradient: 5%-100% (B) in 1.8 minutes, electrospray ionization, MRM detection (triple quadrupole). The peak areas were determined and triplicate values are averaged. The stability is expressed in percent of the initial value at t=0·(tx/t0×100). By using the TREND function of EXCEL (Microsoft Office 2003) T1/2 were determined.

[4] = Plasma stability, human plasma; format: in vitro ADME; settings: 37° C., 1440 min, read-out: human pl. cpd left at 1440 min
Protocol: as §1

Row | SMILES | level at 0.083 h [1] | level at 0.25 h [1] | level at 0.5 h [1] | level at 1 h [1] | level at 2 h [1] | level at 3 h [1] | AUC(0-inf) [1] | Cmax [1] | clearance [1] | half-life [1] | Vd [1] | Calc. Conc. (plasma) ([1]; 4 h) | GI50 at 48 h [2] | remaining at 24 h, 10 μM [3] | mouse pl. T1/2 [3] | remaining at 24 h, 10 μM [4] | level at 4 h ([1]; 4 h)
1 | COc1ccc(C[C@@H]2NC(=O)[C@H](Cc3c[nH]cn3)NC(=O)[C@H](Cc3ccc(O)cc3)NC(=O)[C@@H]3CCCN3C(=O)[C@H]3CCCN3C(=O)[C@H](CCCCNC(C)C)NC(=O)[C@H](CCC(N)=O)NC(=O)[C@H](Cc3ccc(O)cc3)NC(=O)[C@@H]3CSSC[C@H](NC2=O)C(=O)N[C@@H](CO)C(=O)N[C@@H](C)C(=O)N[C@H](Cc2ccc(OC)cc2)C(=O)N[C@@H](CCCNC(C)C)C(=O)N[C@@H](CCCNC(=N)N)C(=O)N[C@@H](Cc2ccc(O)cc2)C(=O)N3)cc1 [Ex. 6, cyclo(-Tyr^1-His^2-Tyr(Me)^3-Cys^4-Ser^5-Ala^6-^DTyr(Me)^7-Orn(iPr)^8-Arg^9-Tyr^10-Cys^11-Tyr^12-Gln^13-Lys(iPr)^14-^DPro^15-Pro^16-), disulfide bond between Cys^4 and Cys^11] (cyclo(YHY(Me)CSA[dY](Me)[Orn(iPr)]RYCYQ[Lys(iPr)][dP]P); disulfide 4-11) | 686 ng/mL | 435 ng/mL | 215 ng/mL | 75 ng/mL | 36 ng/mL | 13 ng/mL | 409 ng·h/mL | 686 ng/mL | 40.8 mL/min/kg | 48 min | 2.98 L/kg | 7 ng/mL | > 50 µM | 68% | 1440 min | 83% | 
2 | CC(C)NCCCC[C@@H]1NC(=O)[C@H](CCC(N)=O)NC(=O)[C@H](Cc2ccc(O)cc2)NC(=O)[C@@H]2CSSC[C@H](NC(=O)[C@H](Cc3ccc(O)cc3)NC(=O)[C@H](Cc3c[nH]cn3)NC(=O)[C@H](Cc3ccc(O)cc3)NC(=O)[C@@H]3CCCN3C(=O)[C@H]3CCCN3C1=O)C(=O)N[C@@H](CO)C(=O)N[C@@H](C)C(=O)N[C@H](Cc1ccc(O)cc1)C(=O)N[C@@H](CCCNC(C)C)C(=O)N[C@@H](CCCNC(=N)N)C(=O)N[C@@H](Cc1ccc(O)cc1)C(=O)N2 [Ex. 5, cyclo(-Tyr^1-His^2-Tyr^3-Cys^4-Ser^5-Ala^6-^DTyr^7-Orn(iPr)^8-Arg^9-Tyr^10-Cys^11-Tyr^12-Gln^13-Lys(iPr)^14-^DPro^15-Pro^16-), disulfide bond between Cys^4 and Cys^11] (cyclo(YHYCSA[dY][Orn(iPr)]RYCYQ[Lys(iPr)][dP]P); disulfide 4-11) | 1310 ng/mL | 984 ng/mL | 350 ng/mL | 503 ng/mL | 150 ng/mL | 49 ng/mL | 1200 ng·h/mL | 1310 ng/mL | 13.9 mL/min/kg | 54 min | 1.04 L/kg |  | > 50 µM | 81% | 1440 min | 92% | 33 ng/mL
3 | CC(C)NCCCC[C@@H]1NC(=O)[C@H](CCC(N)=O)NC(=O)[C@H](Cc2ccc(O)cc2)NC(=O)[C@@H]2CSSC[C@H](NC(=O)[C@H](C)NC(=O)[C@H](Cc3c[nH]cn3)NC(=O)[C@H](Cc3ccc(O)cc3)NC(=O)[C@@H]3CCCN3C(=O)[C@H]3CCCN3C1=O)C(=O)N[C@@H](CO)C(=O)N[C@@H](C)C(=O)N[C@H](Cc1ccc(O)cc1)C(=O)N[C@@H](CCN)C(=O)N[C@@H](CCCNC(=N)N)C(=O)N[C@@H](Cc1ccc(O)cc1)C(=O)N2 [Ex. 3, cyclo(-Tyr^1-His^2-Ala^3-Cys^4-Ser^5-Ala^6-^DTyr^7-Dab^8-Arg^9-Tyr^10-Cys^11-Tyr^12-Gln^13-Lys(iPr)^14-^DPro^15-Pro^16-), disulfide bond between Cys^4 and Cys^11] (cyclo(YHACSA[dY][Dab]RYCYQ[Lys(iPr)][dP]P); disulfide 4-11) | 1170 ng/mL | 999 ng/mL | 442 ng/mL | 402 ng/mL | 136 ng/mL | 26 ng/mL | 898 ng·h/mL | 1310 ng/mL | 18.6 mL/min/kg | 30 min | 0.762 L/kg |  | > 50 µM | 98% | 1440 min | 100% | 12 ng/mL
